Assay results published in patent US10195218B2, “Crystallization method and bioavailability” (GRUNENTHAL GMBH, priority 2016, dated 2019).
Where two headings read alike, the source gives them in different places.

Legend:
[1] = Aqueous solubility at room temperature; type: physicochemical; details: water
[2] = Dog PK study: serum concentrations of zoledronic acid after IV or oral (gelatin capsule, enteric or non-enteric coated, with or without excess coformer, micronized) dosing, LC/MS/MS; type: in vivo; details: beagle, Leg 1, IV 0.05 mg/kg, saline solution, time 0 hour (pre-dose), read-out: Average serum concentration of 5 dogs
Method: Surgical catheters (jugular vein and intraduodenum) were implanted to the animals prior to the study. Beagle dogs from Marshall Farms, N.Y., USA, weighing from (9-12 kg) were used in this study. Surgical catheters (jugular vein) were implanted prior to the study.
IV Administration: The dose volume of each dog was adjusted based upon the average weight of the dog. • ii.
Prior to dosing, all dogs received a 20 mL dose of citric acid (24 mg/mL in water) to lower the pH of their stomach. After dosing capsules or IV, all dogs received additional 6.25 mL citric acid solution (24 mg/mL in water) as a rinse.
Group A, (IV administration). Group members, designated IV doses are listed below:
Group B (oral administration): Group designations and oral doses are listed below:
Group C (oral administration): Group designations and oral doses are listed below:
Group D, (15 min IV infusion): Group members, designated IV doses are listed below:
Group E, (oral administration): Group members, designated IV doses are listed below:
Group F, (15 min IV infusion): Group members, designated IV doses are listed below: […]

[3] = cited from earlier work
[4] = cited from earlier work; remark: listed apart in the source
[5] = Rat PK study: plasma concentrations of zoledronic acid after IV, oral gavage or intraduodenal (ID) dosing, LC/MS/MS; type: in vivo, Sprague-Dawley Rats
Method: These studies were conducted on rats and dogs as they are suitable animal models for zoledronic acid. This can be attributed to the fact that both animals have historically been used in the safety evaluation and PK screening studies and are recommended by appropriate regulatory agencies. […] Pure zoledronic acid and zoledronic acid complexes prepared by the methods in this invention were delivered to the rats and dogs through IV or oral routes. Additional tests included ID administration in rats and administration of enteric coated capsules in dogs. All compounds delivered were well tolerated by the animals with no adverse events or physical abnormalities noticed. […] USA. Surgical catheters (jugular vein and intraduodenum) were implanted to the animals prior to the study. […] Surgical catheters (jugular vein) were implanted prior to the study. […] Zoledronic acid and its complex formulations were administered through IV, oral and ID. […] The dose of each rat was calculated on a per rat basis (not on an average weight of all the rats in the lot). • ii. Oral gavage administration: solid suspensions were administered. The dose of each rat was calculated on a per rat basis (not on an average weight of all the rats in the lot). […] Duodenal cannula administration: solid suspensions were administered. The dose of each rat was calculated on a per rat basis (not on an average weight of all the rats in the lot). […] Group I (IV administration). Group members, designated IV doses are listed below IV comparator group, was conducted to calculate MAT (mean absorption time) and ka (absorption rate constant) for the oral groups. Group II (oral gavage): Group designations and oral doses are listed below: Group III (ID administration): Group designations and oral doses are listed below: Group IV (oral gavage): Group designations and oral doses are listed below: […] Samples were thawed on the day of analysis and the amount of zoledronic acid in the samples was quantified by analyzed by LC/MS/MS method.

[6] = molar concentration of the complex
[7] = ID (duodenal cannula) 5 mg/kg zoledronic acid equivalent, PEG 400, time 8 hour
[8] = ID (duodenal cannula) 5 mg/kg zoledronic acid equivalent, PEG 400, time 24 hour
[9] = PO gavage 5 mg/kg zoledronic acid equivalent, PEG 400, time 24 hour (Table 1)

For `O=P(O)(O)C(O)(Cn1ccnc1)P(=O)(O)O` [ZA monohydrate, Zoledronic acid monohydrate, reference compound], the solubility ([1]; molar concentration of the complex, read-out: Aqueous solubility, mMol/L (complex)) was 5.41 mmol/L and the solubility ([1]; read-out: Aqueous solubility, Conc.) was 1570 µg/mL.

For `NCCCCC(N)C(=O)O.O.O=P(O)(O)C(O)(Cn1ccnc1)P(=O)(O)O` [ZA:DL-Lysine monohydrate], the “Aqueous solubility, Conc.” value [1] was 13.9 mg/mL and the “Aqueous solubility, mMol/L (complex)” value [1, 6] was 31.86 mmol/L.

In the case of `O=P(O)(O)C(O)(Cn1ccnc1)P(=O)(O)O` [Zoledronic acid, (1-hydroxy-2-imidazol-1-yl-1-phosphono-ethyl)phosphonic acid], the concentration at 0 h [2] is listed as 0 ng/mL, the “solubility in 0.1 N HCl solution” value ([3]; 0.1 N HCl solution) is listed as “sparingly soluble” and the “solubility in 0.1 N NaOH” value ([3]; 0.1 N NaOH) is listed as “freely soluble”. For the same molecule, the “solubility in various organic solvents” value ([3]; various organic solvents) was “practically insoluble”, the solubility in water ([3]; water) was “sparingly soluble” and the oral bioavailability ([4]; according to FDA Summary Basis of Approval) was “approximately 1%”. For the same molecule, the “gastric and intestinal irritation” value ([4]; in vivo) was “severe gastric and intestinal irritations”.

With “Zoledronic, Nicotinamide, and Water Complex” the “Average plasma concentration of 3 Rats” value [5, 7] was 0.00 ng/mL, the “Average plasma concentration of 3 Rats” value [5, 8] was 0.00 ng/mL and the “Average plasma concentration of 3 Rats” value [5, 9] was 0.00 ng/mL.

For `NCCCCC(N)C(=O)O.O.O.O=P(O)(O)C(O)(Cn1ccnc1)P(=O)(O)O` [ZA:L-Lysine dihydrate], the “Aqueous solubility, Conc.” value [1] was 8.22 mg/mL and the “Aqueous solubility, mMol/L (complex)” value [1, 6] was 18.09 mmol/L.

For Zoledronic, L-lysine, and water complex, the “Average plasma concentration of 3 Rats” value ([5]; ID (duodenal cannula) 5 mg/kg zoledronic acid equivalent, PEG 400, time 0.25 hour) was 91.21 ng/mL, the “Average plasma concentration of 3 Rats” value ([5]; ID (duodenal cannula) 5 mg/kg zoledronic acid equivalent, PEG 400, time 1 hour) was 26.53 ng/mL and the “Average plasma concentration of 3 Rats” value ([5]; ID (duodenal cannula) 5 mg/kg zoledronic acid equivalent, PEG 400, time 4 hour) was 0.74 ng/mL. For the same molecule, the “Average plasma concentration of 3 Rats” value [5, 7] was 0.00 ng/mL, the “Average plasma concentration of 3 Rats” value [5, 8] was 0.00 ng/mL and the “Average plasma concentration of 3 Rats” value ([5]; PO gavage 5 mg/kg zoledronic acid equivalent, PEG 400, time 0.25 hour (Table 1)) was 258.43 ng/mL. For the same molecule, the “Average plasma concentration of 3 Rats” value ([5]; PO gavage 5 mg/kg zoledronic acid equivalent, PEG 400, time 0.5 hour (Table 1)) was 249.82 ng/mL, the “Average plasma concentration of 3 Rats” value ([5]; PO gavage 5 mg/kg zoledronic acid equivalent, PEG 400, time 1 hour (Table 1)) was 184.95 ng/mL and the “Average plasma concentration of 3 Rats” value ([5]; PO gavage 5 mg/kg zoledronic acid equivalent, PEG 400, time 4 hour (Table 1)) was 28.70 ng/mL. The “Average plasma concentration of 3 Rats” value ([5]; PO gavage 5 mg/kg zoledronic acid equivalent, PEG 400, time 8 hour (Table 1)) was 3.27 ng/mL and the “Average plasma concentration of 3 Rats” value [5, 9] was 0.00 ng/mL.
